One may read the solubility as the dissolved amount per volume that the medium holds.

Consider 6 compounds from patent US11123338B2, “C-met modulator pharmaceutical compositions” (Exelixis, Inc., priority 2010, dated 2021).

A short description of data set [1]: Moisture uptake / hygroscopicity (moisture vapor isotherm). Format: physicochemical. The note with it: for Hygroscopicity (remark in words): salt screen summary table. The method, then:
Moisture sorption isotherms were collected in a VTI SGA-100 Symmetric Vapor Analyzer using approximately 10 mg of sample. The sample was dried at 60° C. until the loss rate of less than or equal to 0.0005 weight percent per minute was obtained for 10 minutes. […] Equilibration at each RH was reached when the rate of less than or equal to 0.0003 weight percent per minute for 35 minutes was achieved, or at a maximum of 600 minutes.

A short description of data set [2]: Solid-state stability on exposure to high humidity and high temperature. Format: physicochemical.
Data set [3] can be described thus: Water solubility of free base and salts from the salt screen. As to conditions: for Solubility (remark in words): salt screen.
Method: The water solubility of the various salts was determined using 10 mg solids per mL water.
Data set [4] in a line: Thermal stability by DSC/TGA. Format: physicochemical.
Method: The sample (about 10-30 mg) was placed in a previously tared platinum pan. The weight of the sample was measured accurately and recorded to a thousand of a milligram. The furnace was purged with nitrogen gas at 100 mL/min. Data were collected between room temperature and 300° C. at 10° C./min heating rate.
The sample (about 2-6 mg) was weighed in an aluminum pan, accurately recorded to a hundredth of a milligram, and transferred to the DSC. The instrument was purged with nitrogen gas at 50 mL/min. Data were collected between room temperature and 300° C. at a 10° C./min heating rate.
Data set [5] is described as follows: Storage stability under controlled temperature / relative humidity. It counts as physicochemical.
Setting [6] is: water, thermodynamic from solid.
Setting [7] is: water solubility, 10 mg solids per mL water.

On to `Cl` [Chloride], for which, in data set [1], the “Hygroscopicity (remark in words)” value is “Crystalline but Hygroscopic; possible”. Also, the “Moisture sensitivity (phase behaviour on exposure)” value in data set [2] (high humidity (75 percent RH) and high temperature (40° C.)) is “changing phase”.

Take `COc1cc2nccc(Oc3ccc(NC(=O)C4(C(=O)Nc5ccc(F)cc5)CC4)cc3)c2cc1OC` [Free base, N-[4-[(6,7-Dimethoxy-4-quinolinyl)oxy]phenyl]-N′-(4-fluorophenyl)-1,1-cyclopropanedicarboxamide]: the “Solubility (remark in words)” value in data set [3] (water solubility) is given as “very low solubility”. Besides, in data set [3] (setting [6]), the solubility was less than 1 µg/mL.

As for `COc1cc2nccc(Oc3ccc(NC(=O)C4(C(=O)Nc5ccc(F)cc5)CC4)cc3)c2cc1OC.O=C(O)C[C@@H](O)C(=O)O` [L-Malate, cyclopropane-1,1-dicarboxylic acid [4-(6,7-dimethoxy-quinoline-4-yloxy)-phenyl]-amide (4-fluoro-phenyl)-amide, (L) malate salt], the “Amount of water taken up” value in data set [1] (at 90 percent RH) is reported as “about 0.60 weight percent”. In data set [1], the “Hygroscopicity (remark in words)” value is reported as “Crystalline; non-Hygroscopic with no”. Further, the “Solubility (remark in words)” value in data set [3] (water solubility, listed as L-malate salt, malate salt) is “sufficient solubility”. In addition, the solubility in data set [3] (setting [6]) was 59 µg/mL. In addition, the “Solid state phase and degree of crystallinity after exposure” value in data set [2] (75 percent RH at 40° C. for 1 week) was “remained unchanged”. In addition, in data set [4], the “Stable up to (DSC/TGA)” value is “up to 185 °C”. Further, the “Change in assay, purity, moisture, and dissolution” value in data set [5] (25° C./60 percent relative humidity (RH)) and in data set [5] (40° C./60 percent RH) was “no change” each time. Further, the “Chemical/physical stability (remark in words)” value in data set [5] (salt screen summary table) is on record as “chemical/physical stability”.

On to `O=C(O)[C@H](O)[C@@H](O)C(=O)O` [L-Tartrate], for which the “Hygroscopicity (remark in words)” value in data set [1] is given as “Hygroscopic”.

Phosphate: in data set [1] (highest among the salts tested), the “Weight gain due to absorption of H2O” value amounted to 8%. The “Hygroscopicity (remark in words)” value in data set [1] is recorded as “Crystalline but Hygroscopic”. For the same compound, the solubility in data set [3] (setting [7]) was 26 µg/mL.

Consider Tosylate, for which, in data set [3] (setting [7]), the solubility was found to be 7 µg/mL. Also, in data set [3] (water solubility), the “Solubility (remark in words)” value is reported as “Crystalline salt, low solubility”.
